Converted amounts (≈) assume the structure as drawn. “And” between values parts separate entries of the source, which are not always exact repeats. Equal entries are not always repeated. Where two headings read alike, the source gives them in different places. Values belong to the molecule of their own block, whether it stands above or below them.
Assays:
S. aureus = experiment: Serum shift assays (MIC with and without 50% human serum); format: cell-based, Staphylococcus aureus; conditions: for MIC: Staphylococcus aureus
Summary of the method: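 MICs run in triplicate with and without 50% heat-inactivated pooled human serum in MHB. Threefold compound dilutions (≤0.5% DMSO), inoculum from 1*10^8 CFUs/mL diluted 1:100, incubated ~20 h at 37° C. MIC = lowest concentration giving ≥90% growth inhibition.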

[1] = test system: E. faecium VRE (ATCC 51559); experiment: MIC susceptibility testing; format: cell-based, Enterococcus faecium; conditions: for MIC: Enterococcus faecium
Summary of the method: (§1)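 CLSI broth microdilution with two-fold compound dilutions, in triplicate; cells added in medium at 1×10^6 CFUs/mL, DMSO ≤0.5%. Media: MHB for S. aureus, CA-MHB for E. coli and E. faecium, CA-MHB plus 3% laked horse blood for S. pyogenes (5% CO2).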

[2] = target: recombinant S. aureus MetRS enzyme (Staphylococcus aureus, UniProt A0A0H2XID2); experiment: Inhibition of SaMetRS, ATP depletion assay; format: biochemical
Summary of the method: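 IC50 values come from sigmoidal fits of percent inhibition, based on ATP left after 120 min as measured by Kinase-Glo. Substrates were 20 μM L-methionine and 150 nM ATP, added after compounds sat 15 min at room temperature with 25 nM His-tagged SaMetRS, bulk E. coli tRNA, pH 7.9 HEPES buffer and 2% DMSO.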

[3] = test system: S. epidermidis (ATCC 49134); experiment: MIC susceptibility testing; format: cell-based; conditions: Staphylococcus epidermidis, ATCC49134; read-out: S. epidermidis (ATCC 49134) MIC
S. pyogenes (ATCC 19615) = experiment: MIC susceptibility testing; format: cell-based; conditions: Streptococcus pyogenes
[4] = test system: S. epidermidis (ATCC 12228); experiment: MIC susceptibility testing; format: cell-based; conditions: Staphylococcus epidermidis, ATCC12228; read-out: S. epidermidis (ATCC 12228) MIC
E. faecium (ATCC 19434) = experiment: MIC susceptibility testing; format: cell-based; conditions: Enterococcus faecium, ATCC19434; read-out: E. faecium (ATCC 19434) MIC
Summary of the method: as §1

E. faecalis (ATCC 29212) = experiment: MIC susceptibility testing; format: cell-based; conditions: Enterococcus faecalis, ATCC29212; read-out: E. faecalis (ATCC 29212) MIC
[5] = Liver microsome stability; format: in vitro ADME
Description: Microsome stability. Liver microsome stability assays were done by contract research laboratory, Wuxi AppTec Co. (Hubei, China). Briefly, compounds at 1 μM concentration were incubated in singlet with human or CD-1 mouse liver microsomes for 6 time points (0, 5, 10, 20, 30, and 60 min). Loss of parent compound was quantified by liquid chromatography/tandem mass spectrometry.

[6] = 50% human serum, read-out: Avg MIC ± SEM (+50% serum)
[7] = no serum, read-out: Avg MIC ± SEM (no serum)
[8] = read-out: E. faecium VRE (ATCC 51559) MIC
[9] = recombinant enzyme, lower limit of detection 0.025 μM, read-out: MetRS S. aureus (enzyme) IC50
[10] = ATCC19615, 18 h, medium with 3% laked horse blood, read-out: S. pyogenes (ATCC 19615) MIC
[11] = human, human liver microsomes, read-out: Microsome stability: Human T½
[12] = mouse liver microsomes, CD-1 mouse, read-out: Microsome stability: Mouse T½
[13] = read-out: (B) MetRS (S. aureus) IC50
[14] = E. faecium ATCC 51559, read-out: (I) E. faecium (ATCC 51559) MIC
[15] = ATCC19615, S. pyogenes ATCC 19615, read-out: (H) S. pyogenes (ATCC 19615) MIC

SMILES: Fc1ccc2nc(NCCCNCc3cc(Cl)cc(Cl)c3)[nH]c2n1 [Compound 1614, [(3,5-dichlorophenyl)methyl][3-({5-fluoro-3H-imidazo[4,5-b]pyridin-2-yl}amino)propyl]amine]
MIC (S. aureus; [6]): 42.7 ± 4.1 µg/mL
MIC (S. aureus; [7]): 2.47 ± 0.35 µg/mL
MIC [1, 8]: 0.625 µg/mL (≈ 1.7 µM)
IC50 [2, 9]: < 25 nM
MIC [3]: 10 µg/mL (≈ 27.2 µM)
MIC (S. pyogenes (ATCC 19615); [10]): > 10 µg/mL
MIC [4]: 5 µg/mL (≈ 13.6 µM)
MIC (E. faecium (ATCC 19434)): 0.625 µg/mL (≈ 1.7 µM)
MIC (E. faecalis (ATCC 29212)): 1.25 µg/mL (≈ 3.39 µM)
half-life at 1 μM [5, 11]: 9.8 min
half-life at 1 μM [5, 12]: 6.6 min

SMILES: Fc1ccc2nc(NCCCN[C@@H]3CCNc4c(Cl)cc(Cl)cc43)[nH]c2n1 [Compound 1717, (4R)-6,8-dichloro—N-[3-({5-fluoro-3H-imidazo[4,5-b]pyridin-2-yl}amino)propyl]-1,2,3,4-tetrahydroquinolin-4-amine, reference compound]
Avg MIC ± SEM (+50% serum) (S. aureus; 50% human serum): 2.066 ± 0.19 µg/mL
MIC (S. aureus; [6]): ~2 µg/mL
MIC (S. aureus; [7]): 0.088 ± 0.02 µg/mL
MIC [1, 8]: 0.156 µg/mL (≈ 0.381 µM)
IC50 [2, 9]: < 25 nM
MIC [3]: 0.313 µg/mL (≈ 0.765 µM)
MIC (S. pyogenes (ATCC 19615); [10]): 2.5 µg/mL (≈ 6.11 µM)
MIC [4]: 0.156 µg/mL (≈ 0.381 µM)
MIC (E. faecium (ATCC 19434)): 0.039 µg/mL (≈ 0.0953 µM)
MIC (E. faecalis (ATCC 29212)): 0.078 µg/mL (≈ 0.191 µM)
half-life at 1 μM [5, 11]: 10.3 min
half-life at 1 μM [5, 12]: 10.3 min

SMILES: CCn1c(Cc2ccc(Cl)cc2Cl)cn(Cc2nc3nc(F)ccc3[nH]2)c1=O [Compound 2062, 4-[(2,4-dichlorophenyl)methyl]-3-ethyl-1-({5-fluoro-1H-imidazo[4,5-b]pyridin-2-yl}methyl)-2,3-dihydro-1H-imidazol-2-one]
MIC (S. aureus; [6]): 11.8 ± 4.03 µg/mL
MIC (S. aureus; [7]): 0.057 ± 0.004 µg/mL
MIC [1, 8]: 0.313 µg/mL (≈ 0.745 µM)
IC50 [2, 13]: < 25 nM
IC50 [2, 9]: < 25 nM
MIC [3]: 1.25 µg/mL (≈ 2.97 µM)
MIC (E. faecium (ATCC 19434)): 0.313 µg/mL (≈ 0.745 µM)
MIC (E. faecalis (ATCC 29212)): 1.25 µg/mL (≈ 2.97 µM)
half-life at 1 μM [5, 11]: 12.6 min
half-life at 1 μM [5, 12]: 8.4 min

SMILES: CCn1c(Cc2ccc(OC)cc2Cl)cn(Cc2nc3nc(Cl)ccc3[nH]2)c1=O [Compound 2093, 1-({5-chloro-1H-imidazo[4,5-b]pyridin-2-yl}methyl)-4-[(2-chloro-4-methoxyphenyl)methyl]-3-ethyl-2,3-dihydro-1H-imidazol-2-one]
MIC (S. aureus; [6]): 9.59 ± 1.71 µg/mL
MIC (S. aureus; [7]): 0.036 ± 0.01 µg/mL
(I) E. faecium (ATCC 51559) MIC ([1]; E. faecium ATCC 51559): 0.0387 µg/mL
MIC [1, 14]: 0.0507 µg/mL (≈ 0.117 µM)
MIC [1, 8]: 0.078 µg/mL (≈ 0.18 µM)
IC50 [2, 13]: < 25 nM
IC50 [2, 9]: < 25 nM
MIC [3]: 1.25 µg/mL (≈ 2.89 µM)
MIC (S. pyogenes (ATCC 19615); [10]): 1.25 µg/mL (≈ 2.89 µM)
MIC (S. pyogenes (ATCC 19615); [15]): 0.678 µg/mL (≈ 1.57 µM)
MIC [4]: 0.625 µg/mL (≈ 1.45 µM)
MIC (E. faecium (ATCC 19434)): 0.078 µg/mL (≈ 0.18 µM)
MIC (E. faecalis (ATCC 29212)): 0.156 µg/mL (≈ 0.361 µM)
half-life at 1 μM [5, 11]: 8.3 min
half-life at 1 μM [5, 12]: 3.2 min

SMILES: CCn1c(Cc2ccc(OC)cc2Cl)cn(Cc2nc3nc(F)ccc3[nH]2)c1=O [Compound 2114, 4-[(2-chloro-4-methoxyphenyl)methyl]-3-ethyl-1-({5-fluoro-1H-imidazo[4,5-b]pyridin-2-yl}methyl)-2,3-dihydro-1H-imidazol-2-one]
MIC [1, 8]: 0.156 µg/mL (≈ 0.375 µM)
IC50 [2, 13]: < 25 nM
IC50 [2, 9]: < 25 nM
MIC [3]: 1.25 µg/mL (≈ 3.01 µM)
MIC (S. pyogenes (ATCC 19615); [15]): 0.754 µg/mL (≈ 1.81 µM)
MIC [4]: 1.25 µg/mL (≈ 3.01 µM)
MIC (E. faecium (ATCC 19434)): 0.078 µg/mL (≈ 0.188 µM)
MIC (E. faecalis (ATCC 29212)): 0.625 µg/mL (≈ 1.5 µM)
half-life at 1 μM [5, 11]: 15.2 min
half-life at 1 μM [5, 12]: 7.7 min

SMILES: COc1cc(Cl)c(-c2cccc3nc(Cc4nc5nc(Cl)ccc5[nH]4)cn23)cc1OC [Compound 2144, 2-({5-chloro-1H-imidazo[4,5-b]pyridin-2-yl}methyl)-5-(2-chloro-4,5-dimethoxyphenyl)imidazo[1,2-a]pyridine]
Avg MIC ± SEM (+50% serum) (S. aureus; 50% human serum): 2.06 µg/mL and 2.055 ± 0.51 µg/mL
MIC (S. aureus; [6]): ~2 µg/mL
MIC (S. aureus; [7]): 0.036 ± 0.01 µg/mL
(I) E. faecium (ATCC 51559) MIC ([1]; E. faecium ATCC 51559): 0.0140, μg/ml
MIC [1, 14]: 0.0126 µg/mL (≈ 0.0277 µM)
MIC [1, 8]: 0.0195 µg/mL (≈ 0.0429 µM)
IC50 [2, 13]: < 25 nM
IC50 [2, 9]: < 25 nM
MIC [3]: 0.313 µg/mL (≈ 0.689 µM)
MIC (S. pyogenes (ATCC 19615); [10]): 1.25 µg/mL (≈ 2.75 µM)
MIC [4]: 0.156 µg/mL (≈ 0.343 µM)
MIC (E. faecium (ATCC 19434)): 0.0195 µg/mL (≈ 0.0429 µM)
MIC (E. faecalis (ATCC 29212)): 0.0195 µg/mL (≈ 0.0429 µM)
half-life at 1 μM [5, 11]: 16.4 min
half-life at 1 μM [5, 12]: 6.5 min

MIC (S. aureus; [6]): 1.89 ± 0.1 µg/mL
MIC (S. aureus; [7]): 1.57 ± 0.1 µg/mL
MIC [1, 8]: 1.25 µg/mL (≈ 3.71 µM)
IC50 [2, 9]: > 10000 nM
MIC [3]: 0.625 µg/mL (≈ 1.85 µM)
MIC (S. pyogenes (ATCC 19615); [10]): 1.25 µg/mL (≈ 3.71 µM)
MIC [4]: 0.625 µg/mL (≈ 1.85 µM)
MIC (E. faecium (ATCC 19434)): 2.5 µg/mL (≈ 7.41 µM)
MIC (E. faecalis (ATCC 29212)): 2.5 µg/mL (≈ 7.41 µM)
SMILES: CC(=O)NC[C@H]1CN(c2ccc(N3CCOCC3)c(F)c2)C(=O)O1 [LNZ, linezolid]
